Results reported in patent US20090181948A1, “DIAMINE DERIVATIVE” (KYOWA HAKKO KOGYO CO., LTD., priority 2005, published 2009).

Target: T1, histamine H3 receptor (Rattus norvegicus, UniProt Q9QYN8)
T1 construct: from tissue; host or cells: rat striatum (Sprague-Dawley, male, 6 weeks), membrane homogenate
Assay: Histamine H3 receptor binding assay ([3H]-Nα-methylhistamine binding to rat striatum homogenate)
Settings: 1 μmol/L test compound; [3H]-Nα-methylhistamine 1 nmol/L; striata of Sprague-Dawley male rats, 25° C., 1 hour; read-out: Inhibition ratio of [3H]-Nα-methylhistamine binding
Procedure: To the striata of Sprague-Dawley male rats (6 weeks of age), a 10-fold volume of lysis buffer {50 mmol/L [[…] (Tris)]/HCl (pH 7.4), 5 mmol/L ethylenediaminetetraacetic acid (EDTA), a protease inhibitor mixture [1 mg/mL phenylmethylsulfonyl fluoride (PMSF), 1 μg/mL pepstatin A, 1 μg/mL leupeptin, 1 μg/mL chymostatin]} was added and the striata were homogenized. The resulting homogenate was centrifuged (30,000×g, 4° C., 30 min), and the obtained precipitate was resuspended in a 10-fold volume of lysis buffer, followed by centrifugation under the same condition. To the obtained precipitate, a 3-fold volume of lysis buffer was added to suspend the precipitate, and the resulting tissue homogenate was used for a test.
A test compound was dissolved in an assay buffer [50 mmol/L Tris/HCl (pH 7.4), 5 mmol/L EDTA], and [^3H]-N^α-methylhistamine (1 nmol/L) and the tissue homogenate (20 μg, in terms of protein amount) were added thereto, and then, the mixture was incubated at 25° C. for 1 hour. Then, the reaction was terminated by rapid suction filtration on a glass filter [GF/B: Whatman, previously soaked in 0.3 w/v % polyethylenimine for about 30 min]. Then, the glass filter was washed three times with 3 mL of assay buffer. This glass filter was transferred into a scintillation vial and dried at 60° C. for 30 minutes. Then, 0.5 mL of Ultimagold (Perkin Elmer) was added thereto, and the radioactivity (binding amount of [^3H]-N^α-methylhistamine) was measured using a liquid scintillation counter. The obtained value was used as a binding amount in the presence of the test compound. The same procedure as described above was carried out in the absence of the test compound, and the binding amount of [^3H]-N^α-methylhistamine obtained at this time was used as a binding amount in the absence of the test compound. Further, the binding amount of [^3H]-N^α-methylhistamine obtained in the presence of 10 μmol/L thioperamide was used as a non-specific binding amount. An inhibitory action of [^3H]-N^α-methylhistamine binding was represented by an inhibition ratio in terms of 1 μmol/L of the test compound calculated by the following Equation (1).
Inhibition ratio(%)={1−[(Binding amount in the presence of test compound)−(Non-specific binding amount)]/[(Binding amount in the absence of test compound)−(Non-specific binding amount)]}×100 (1)

T1 sequence (Q9QYN8 whole entry): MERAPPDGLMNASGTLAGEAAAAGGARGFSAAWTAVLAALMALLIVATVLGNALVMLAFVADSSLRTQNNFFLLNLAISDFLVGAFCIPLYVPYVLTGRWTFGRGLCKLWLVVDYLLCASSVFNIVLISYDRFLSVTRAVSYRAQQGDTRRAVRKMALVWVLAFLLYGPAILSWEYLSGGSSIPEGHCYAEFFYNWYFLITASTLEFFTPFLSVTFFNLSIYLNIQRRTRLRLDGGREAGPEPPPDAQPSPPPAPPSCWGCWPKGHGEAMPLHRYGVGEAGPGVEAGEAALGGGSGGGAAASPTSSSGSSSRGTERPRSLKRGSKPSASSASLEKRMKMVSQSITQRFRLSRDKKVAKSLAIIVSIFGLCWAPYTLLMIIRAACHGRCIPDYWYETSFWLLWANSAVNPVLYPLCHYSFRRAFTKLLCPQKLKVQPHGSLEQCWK

Inhibition at 1 µM, ≥ 80%:
CC1CCCN1CCCN1CCN(CCN2C[C@H](C)C[C@H](C)C2)C1=C(C#N)C#N (relative stereo) [Compound 20, {1-[2-(Cis-3,5-dimethylpiperidino)ethyl]-3-[3-(2-methylpyrrolidin-1-yl)propyl]imidazolidin-2-ylidene}malononitrile]
C=CCN1CCC(N2CCN(CCCN3CCCCC3)C2=C(C#N)C#N)CC1 [Compound 227, [1-(1-Allylpiperidin-4-yl)-3-(3-piperidinopropyl)imidazolidin-2-ylidene]malononitrile]
CC(C)N1CCC(N2CCN(CCN3CCCCC3)C2=C(C#N)C#N)CC1 [Compound 207, [1-(1-Isopropylpiperidin-4-yl)-3-(2-piperidinoethyl)imidazolidin-2-ylidene]malononitrile]
N#CC(C#N)=C1N(CCCN2CCCCCC2)CCN1CCCN1CCCC1 [Compound 69, {1-[3-(Azepan-1-yl)propyl]-3-[3-(pyrrolidin-1-yl)propyl]imidazolidin-2-ylidene}malononitrile]
N#CC(C#N)=C1N(CCN2CCCCC2)CCN1CCN1CCCCC1 [Compound 5, [1,3-Bis(2-piperidinoethyl)imidazolidin-2-ylidene]malononitrile]
CC1CCN(CCCN2CCN(CCCN3CCCCC3)C2=C(C#N)C#N)CC1 [Compound 100, {1-[3-(4-Methylpiperidino)propyl]-3-(3-piperidinopropyl)imidazolidin-2-ylidene}malononitrile]
CC1CC(C)CN(CCCN2CCN(CCCN3CCCCCC3)C2=C(C#N)C#N)C1 (stereo not drawn) [Compound 70, {1-[3-(Azepan-1-yl)propyl]-3-[3-(3,5-dimethylpiperidino)propyl]imidazolidin-2-ylidene}malononitrile]
CC1CC(C)CN(CCN2CCN(CCCN3CCC(C#N)CC3)C2=C(C#N)C#N)C1 (stereo not drawn) [Compound 42, {1-[3-(4-Cyanopiperidino)propyl]-3-[2-(3,5-dimethylpiperidino)ethyl]imidazolidin-2-ylidene}malononitrile]
CC(C)N1CCC(N2CCN(CCN3CCC[C@@H]3C)C2=C(C#N)C#N)CC1 [Compound 210, {1-(1-Isopropylpiperidin-4-yl)-3-[2-((S)-2-methylpyrrolidin-1-yl)ethyl]imidazolidin-2-ylidene}malononitrile]
C[C@H]1CCCN1CCCN1CCN(CCCN2CCSCC2)C1=C(C#N)C#N [Compound 202, {1-[3-((S)-2-methylpyrrolidin-1-yl)propyl]-3-[3-(thiomorpholin-1-yl)propyl]imidazolidin-2-ylidene}malononitrile]
CC1CCCN(CCN2CCN(CCCN3CCC[C@@H]3C)C2=C(C#N)C#N)C1 (stereo partly drawn) [Compound 199, {3-[2-(3-Methylpiperidino)ethyl]-1-[3-((S)-2-methylpyrrolidin-1-yl)propyl]imidazolidin-2-ylidene}malononitrile]
N#CC(C#N)=C1N(CCCN2CCCCC2)CCN1CCNC1CCCCC1 [Compound 63, [1-(2-Cyclohexylaminoethyl)-3-(3-piperidinopropyl)imidazolidin-2-ylidene]malononitrile Difumarate]
C[C@H]1CCCN1CCCCN1CCN(CCN2CCC[C@@H]2C)C1=C(C#N)C#N [Compound 190, {1-[4-((S)-2-methylpyrrolidin-1-yl)butyl]-3-[2-((S)-2-methylpyrrolidin-1-yl)ethyl]imidazolidin-2-ylidene}malononitrile]
N#CC(C#N)=C1N(CCCN2CCCCC2)CCN1CCCN1CCOCC1 [Compound 83, [1-(3-Morpholinopropyl)-3-(3-piperidinopropyl)imidazolidin-2-ylidene]malononitrile]
CC1CCCN1CCCN1CCN(CCCN2CCCC2C)C1=C(C#N)S(=O)(=O)c1ccccc1 (stereo not drawn) [Compound 244, {1,3-Bis[3-(2-methylpyrrolidin-1-yl)propyl]imidazolidin-2-ylidene}benzenesulfonylacetonitrile]
CC1CC(C)CN(CCCN2CCN(CCCN3CCCC3C)C2=C(C#N)C#N)C1 (stereo not drawn) [Compound 110, {1-[3-(3,5-Dimethylpiperidino)propyl]-3-[3-(2-methylpyrrolidin-1-yl)propyl]imidazolidin-2-ylidene}malononitrile]
CC1CCCN1CCCN1CCN(CCCN2CCOCC2)C1=C(C#N)C#N (stereo not drawn) [Compound 85, {1-[3-(2-Methylpyrrolidin-1-yl)propyl]-3-(3-morpholinopropyl)imidazolidin-2-ylidene}malononitrile]
N#CC(C#N)=C1N(CCCN2CCCCCC2)CCN1CCN1CCCCC1 [Compound 46, {1-[3-(Azepan-1-yl)propyl]-3-(2-piperidinoethyl)imidazolidin-2-ylidene}malononitrile]
N#CC(C#N)=C(NCCCN1CCCCC1)N1CCC(CN2CCCCC2)CC1 [Compound 172, [(4-Piperidinomethylpiperidino)(3-piperidinopropylamino)methylene]malononitrile]
CC(C)N1CCC(N2CCN(CCC3CCCN3C)C2=C(C#N)C#N)CC1 (stereo not drawn) [Compound 187, {1-(1-Isopropylpiperidin-4-yl)-3-[2-(1-methylpyrrolidin-2-yl)ethyl]imidazolidin-2-ylidene}malononitrile]
CC1CC(C)CN(CCCN2CCN(CCCN3CCC(O)C3)C2=C(C#N)C#N)C1 (stereo not drawn) [Compound 107, {1-[3-(3,5-Dimethylpiperidino)propyl]-3-[3-(3-hydroxypyrrolidin-1-yl)propyl]imidazolidin-2-ylidene}malononitrile]
N#CC(C#N)=C1N(CCCNC2CCCCC2)CCN1CCN1CCCCC1 [Compound 62, [1-(3-Cyclohexylaminopropyl)-3-(2-piperidinoethyl)imidazolidin-2-ylidene]malononitrile]
N#CC(C#N)=C1N(CCCN2CCOCC2)CCN1C1CCN(CCF)CC1 [Compound 222, {1-[1-(2-Fluoroethyl)piperidin-4-yl]-3-(3-morpholinopropyl)imidazolidin-2-ylidene}malononitrile]
CC(C)N1CCC(N2CCN(CCCN3CCCC3C)C2=C(C#N)C#N)CC1 (stereo not drawn) [Compound 219, {1-(1-Isopropylpiperidin-4-yl)-3-[3-(2-methylpyrrolidin-1-yl)propyl]imidazolidin-2-ylidene}malononitrile]
CC1CC(C)CN(CCCN2CCN(CCCN3CC=CCC3)C2=C(C#N)C#N)C1 (stereo not drawn) [Compound 91, {1-[3-(1,2,3,6-Tetrahydropyridin-1-yl)propyl]-3-[3-(3,5-dimethylpiperidino)propyl]imidazolidin-2-ylidene}malononitrile]
CC1CCCN1CCCN1CCN(CCCN2CCC(=O)CC2)C1=C(C#N)C#N (stereo not drawn) [Compound 203, {1-[3-(2-Methylpyrrolidin-1-yl)propyl]-3-[3-(4-oxopiperidino)propyl]imidazolidin-2-ylidene}malononitrile]
CC1CC(C)CN(CCCN2CCN(CCCN3CCCC3)C2=C(C#N)C#N)C1 (stereo not drawn) [Compound 96, {1-[3-(3,5-Dimethylpiperidino)propyl]-3-[3-(pyrrolidin-1-yl)propyl]imidazolidin-2-ylidene}malononitrile]
C[C@@H]1C[C@H](C)CN(CCN2CCN(CCCN3CCCC3)C2=C(C#N)C#N)C1 [Compound 18, {1-[2-(Cis-3,5-dimethylpiperidino)ethyl]-3-[3-(pyrrolidin-1-yl)propyl]imidazolidin-2-ylidene}malononitrile]
CC1CCCN1CCCN1CCN(CCCN2CCN(C)CC2)C1=C(C#N)C#N (stereo not drawn) [Compound 78, {1-[3-(4-Methylpiperazin-1-yl)propyl]-3-[3-(2-methylpyrrolidin-1-yl)propyl]imidazolidin-2-ylidene}malononitrile]
N#CC(C#N)=C1N(CCCN2CCCCCC2)CCN1CCCN1CCCCCC1 [Compound 66, {1,3-Bis[3-(azepan-1-yl)propyl]imidazolidin-2-ylidene}malononitrile]
